US8772307B2, “Substituted spiro compounds and their use for producing pain-relief medicaments” (Gruenenthal GmbH, priority 2005, dated 2014)

Assays:
[1] = target: T1, vanilloid receptor (VR1) (Homo sapiens, UniProt Q8NER1); assay: Functional testing on vanilloid receptor (VR1): FLIPR Ca2+ inflow assay in CHO K1 cells stably transfected with the VR1 gene; assay type: cell-based; conditions: for inhibition at 10 µM: CHO-K1, inhibition compared to 10 μM CP (capsaicin); for activation at 10 µM: CHO-K1, stimulation compared to 10 μM CP (capsaicin); for IC50: capsaicin (CAP) stimulus, average
T1 construct: expressed in transfected cells; host or cells: CHO K1 cells (ECACC), stably transfected
T1 sequence (Q8NER1 whole entry): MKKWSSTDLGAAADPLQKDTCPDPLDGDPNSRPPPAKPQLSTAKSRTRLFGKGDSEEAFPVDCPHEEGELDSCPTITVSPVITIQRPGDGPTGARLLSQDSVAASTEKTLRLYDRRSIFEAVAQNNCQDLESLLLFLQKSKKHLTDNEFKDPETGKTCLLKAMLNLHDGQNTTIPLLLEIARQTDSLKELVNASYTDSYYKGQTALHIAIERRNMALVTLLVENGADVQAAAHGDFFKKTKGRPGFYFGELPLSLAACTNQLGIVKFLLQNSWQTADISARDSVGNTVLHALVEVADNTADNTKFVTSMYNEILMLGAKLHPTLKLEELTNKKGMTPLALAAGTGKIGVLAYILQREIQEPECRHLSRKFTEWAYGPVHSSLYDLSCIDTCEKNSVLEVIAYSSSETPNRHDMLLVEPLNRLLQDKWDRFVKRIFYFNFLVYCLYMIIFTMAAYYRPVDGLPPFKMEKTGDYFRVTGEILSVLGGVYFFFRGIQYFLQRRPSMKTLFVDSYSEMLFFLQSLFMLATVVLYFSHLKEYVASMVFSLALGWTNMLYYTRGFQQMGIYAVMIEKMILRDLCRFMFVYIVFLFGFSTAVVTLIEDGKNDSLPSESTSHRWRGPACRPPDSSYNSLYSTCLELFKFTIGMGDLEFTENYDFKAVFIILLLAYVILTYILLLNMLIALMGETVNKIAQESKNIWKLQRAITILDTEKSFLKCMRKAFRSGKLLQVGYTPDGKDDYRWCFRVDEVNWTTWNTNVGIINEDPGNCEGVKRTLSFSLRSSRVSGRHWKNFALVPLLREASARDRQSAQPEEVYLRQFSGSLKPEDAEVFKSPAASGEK
Procedure, shortened: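 CHO K1 cells stably expressing VR1, loaded with Fluo-4 (2 μM, 30 min, 37° C); peak Ca²⁺ fluorescence read on FLIPR. Compound (10 μM) added first, agonism as % of 10 μM capsaicin signal; after 5 min, 100 nM capsaicin added, % inhibition calculated relative to maximal inhibition with 10 μM capsaicin.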

[2] = target: T2, rat-species vanilloid receptor 1 (VR1/TRPV1) (Rattus norvegicus, UniProt O35433); assay: Functional testing on vanilloid receptor 1 (VR1/TRPV1): FLIPR Ca2+ inflow assay in rat dorsal root ganglia cells (% activation / % inhibition vs capsaicin); assay type: cell-based; conditions: for inhibition at 10 µM: inhibition compared to 10 μM CP (capsaicin); for activation at 10 µM: stimulation compared to 10 μM CP (capsaicin); for IC50: capsaicin (CAP) stimulus, average
T2 construct: endogenous in cells; host or cells: primary cells dissociated from rat dorsal root ganglia (DRG)
T2 sequence (O35433 whole entry): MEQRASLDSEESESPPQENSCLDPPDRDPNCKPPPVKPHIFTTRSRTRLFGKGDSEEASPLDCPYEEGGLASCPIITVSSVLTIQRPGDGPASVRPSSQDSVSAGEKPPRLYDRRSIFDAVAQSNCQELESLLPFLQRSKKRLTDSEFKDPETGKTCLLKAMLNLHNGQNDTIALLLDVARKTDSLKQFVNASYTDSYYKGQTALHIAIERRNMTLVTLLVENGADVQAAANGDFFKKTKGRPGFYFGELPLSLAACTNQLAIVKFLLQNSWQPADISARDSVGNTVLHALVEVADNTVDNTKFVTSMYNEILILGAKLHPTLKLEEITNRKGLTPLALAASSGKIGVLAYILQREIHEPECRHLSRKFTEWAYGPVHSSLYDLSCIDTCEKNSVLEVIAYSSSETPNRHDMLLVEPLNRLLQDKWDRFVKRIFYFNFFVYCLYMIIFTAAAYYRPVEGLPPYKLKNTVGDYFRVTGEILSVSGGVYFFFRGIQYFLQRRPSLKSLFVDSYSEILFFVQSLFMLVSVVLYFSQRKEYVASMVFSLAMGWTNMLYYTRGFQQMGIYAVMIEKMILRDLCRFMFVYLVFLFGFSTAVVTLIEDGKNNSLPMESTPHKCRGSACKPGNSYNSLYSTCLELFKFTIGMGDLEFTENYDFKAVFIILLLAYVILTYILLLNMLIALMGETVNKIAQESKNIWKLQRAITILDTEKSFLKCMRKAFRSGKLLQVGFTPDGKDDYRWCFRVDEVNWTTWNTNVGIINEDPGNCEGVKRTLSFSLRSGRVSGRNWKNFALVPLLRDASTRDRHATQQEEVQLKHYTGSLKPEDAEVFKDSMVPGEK
Procedure, shortened: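 Rat dorsal root ganglion cells, dissociated with collagenase and trypsin, were plated at 3×10^5/mL on laminin-coated plates in NGF-containing HAMS F12 and cultured 2-3 days at 37° C. Ca2+ inflow read by Fluo-4 fluorescence on FLIPR; test compounds at 10 μM referenced to 10 μM capsaicin.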

Row | inhibition at 10 µM [1] | activation at 10 µM [1] | inhibition at 10 µM [2] | activation at 10 µM [2] | IC50 [1] | IC50 [2] | Structure (SMILES)
1 | 28.1% | 0.66% | 88.1% | 0.73% |  |  | COc1cccc(C2=NOC3(CCN(C(=S)Nc4ccc(C(C)(C)C)cc4)CC3)C2)c1 [Compound 278, 3-(3-methoxyphenyl)-1-oxa-2,8-diazaspiro[4.5]dec-2-ene-8-thiocarboxylic acid-(4-tert-butylphenyl)amide]
2 | 6% | 0% | 82% | -6% | 825 nM | 150 nM | O=C(C=Cc1ccc(C(F)(F)F)cc1)N1CCC2(CC1)CC(c1ccccc1)=NO2 [Compound 314, 1-(3-phenyl-1-oxa-2,8-diazaspiro[4.5]dec-2-en-8-yl)-3-(4-trifluoromethylphenyl)propenone]
3 | 36% | 0% | 98% | 0% | 1440 nM | 181 nM | CC(C)(C)c1ccc(C=CC(=O)N2CCC3(CC2)CC(c2ccccc2)=NO3)cc1 [Compound 323, 3-(4-tert-butylphenyl)-1-(3-phenyl-1-oxa-2,8-diazaspiro[4.5]dec-2-en-8-yl)propenone]
4 | 6% | 0% | 63% | -6% | 875 nM | 270 nM | CC(C)c1ccc(C=CC(=O)N2CCC3(CC2)CC(c2ccccc2)=NO3)cc1 [Compound 325, 3-(4-isopropylphenyl)-1-(3-phenyl-1-oxa-2,8-diazaspiro[4.5]dec-2-en-8-yl)propenone]
5 | 29% | 8% | 101% | 9% |  |  | CC(C)(C)c1ccc(NC(=O)N2CCC3(CC2)CC(c2cccc(Cl)c2)=NO3)cc1 [Compound 333, N-(4-tert-butylphenyl)-3-(3-chlorophenyl)-1-oxa-2,8-diazaspiro[4.5]dec-2-ene-8-carboxamide]
6 | 16% | -1% | 95% | 1% |  |  | CC(C)(C)c1ccc(C(/C=C/c2ccccc2)=C/C(=O)N2CCC3(CC2)CC(c2ccccc2)=NO3)cc1 [Compound 337, (2E,4E)-3-(4-tert-butylphenyl)-5-phenyl-1-(3-phenyl-1-oxa-2,8-diazaspiro[4.5]dec-2-en-8-yl)penta-2,4-dien-1-one]
7 | 60% | 0% | 101% | 3% |  |  | O=C(Nc1ccc(C(F)(F)F)cc1)N1CCC2(CC1)CC(c1cccc(F)c1)=NO2 [Compound 348, 3-(3-fluorophenyl)-N-(4-(trifluoromethyl)phenyl)-1-oxa-2,8-diazaspiro[4.5]dec-2-ene-8-carboxamide]
8 | -12% | 1% | 100% | 5% |  |  | CC(C)(C)c1ccc(NC(=O)N2CCC3(CC2)CC(c2ccc(F)cc2)=NO3)cc1 [Compound 349, N-(4-tert-butylphenyl)-3-(4-fluorophenyl)-1-oxa-2,8-diazaspiro[4.5]dec-2-ene-8-carboxamide]
9 | -4% | 0% | 81% | 1% |  |  | CC(C)(C)c1ccc(CCC(=O)N2CCC3(CC2)CC(c2ccccc2)=NO3)cc1 [Compound 350, 3-(4-tert-butylphenyl)-1-(3-phenyl-1-oxa-2,8-diazaspiro[4.5]dec-2-en-8-yl)propan-1-one]
10 | 83% | 3% | 101% | 6% |  |  | CC(C)(C)c1ccc(NC(=O)N2CCC3(CC2)CC(c2cccc(F)c2)=NO3)cc1 [Compound 351, N-(4-tert-butylphenyl)-3-(3-fluorophenyl)-1-oxa-2,8-diazaspiro[4.5]dec-2-ene-8-carboxamide]
11 | 23% | 0% | 84% | 0% |  |  | CC(C)(C)c1ccc(/C=C/C(=O)N2CCC3(CC2)CC(c2cccc(F)c2)=NO3)cc1 [Compound 353, (E)-3-(4-tert-butylphenyl)-1-(3-(3-fluorophenyl)-1-oxa-2,8-diazaspiro[4.5]dec-2-en-8-yl)prop-2-en-1-one]
12 | 41% | 0% | 95% | 0% | 1110 nM | 148 nM | CC(C)(C)c1ccc(C(/C=C/c2ccccc2)=C/C(=O)N2CCC3(CC2)CC(c2cccc(F)c2)=NO3)cc1 [Compound 358, (2E,4E)-3-(4-tert-butylphenyl)-1-(3-(3-fluorophenyl)-1-oxa-2,8-diazaspiro[4.5]dec-2-en-8-yl)-5-phenylpenta-2,4-dien-1-one]
13 | 12% | 0% | 80% | 3% |  |  | CC(C)(C)c1ccc(/C(=C/C(=O)N2CCC3(CC2)CC(c2cccc(F)c2)=NO3)c2ccc(Cl)c(Cl)c2)cc1 [Compound 360, (Z)-3-(4-tert-butylphenyl)-3-(3,4-dichlorophenyl)-1-(3-(3-fluorophenyl)-1-oxa-2,8-diazaspiro[4.5]dec-2-en-8-yl)prop-2-en-1-one]

Continued, molecule first:

Row | Structure (SMILES) | inhibition at 10 µM [1] | activation at 10 µM [1] | inhibition at 10 µM [2] | activation at 10 µM [2] | IC50 [1] | IC50 [2]
14 | FC(F)(F)c1cccc(NC(=S)N2CCC3(CC2)CC(c2ccccc2)=NO3)c1 [Compound 262, 3-phenyl-1-oxa-2,8-diazaspiro[4.5]dec-2-ene-8-thiocarboxylic acid-(3-trifluoromethylphenyl)amide] | 7.81% | -0.28% | 52.5% | -0.54% |  | 
15 | Cc1ccc(C2=NOC3(CCN(C(=S)NC4CCCC4)CC3)C2)cc1 [Compound 290, 3-p-tolyl-1-oxa-2,8-diazaspiro[4.5]dec-2-ene-8-thiocarboxylic acid cyclopentylamide] | -7.84% | -0.28% | 48.4% | -0.47% |  | 
16 | CC(C)(C)c1ccc(NC(=O)N2CCC3(CC2)CC(c2ncccc2Cl)=NO3)cc1 [Compound 329, 3-(3-chloropyridin-2-yl)-1-oxa-2,8-diazaspiro[4.5]dec-2-ene-8-carboxylic acid-(4-tert-butylphenyl)amide] | 37% | 38% | 96% | 71% |  | 
17 | COc1cccc(C2=NOC3(CCN(C(=O)/C=C/c4ccc(C(F)(F)F)nc4N4CCOCC4)CC3)C2)c1 [Compound 342, (E)-1-(3-(3-methoxyphenyl)-1-oxa-2,8-diazaspiro[4.5]dec-2-en-8-yl)-3-(2-morpholino-6-(trifluoromethyl)pyridin-3-yl)prop-2-en-1-one] | 53% | 0% | 60% | 0% | 1550 nM | 478 nM
18 | O=C(/C=C/c1cccc(Br)c1)N1CCC2(CC1)CC(c1ccccc1)=NO2 [Compound 346, (E)-3-(3-bromophenyl)-1-(3-phenyl-1-oxa-2,8-diazaspiro[4.5]dec-2-en-8-yl)prop-2-en-1-one] | 3% | 0% | 62% | 0% | 4380 nM | 1360 nM
19 | CC(C)(C)c1ccc(NC(=O)N2CCC3(CC2)CC(c2ccccc2F)=NO3)cc1 [Compound 352, N-(4-tert-butylphenyl)-3-(2-fluorophenyl)-1-oxa-2,8-diazaspiro[4.5]dec-2-ene-8-carboxamide] | -3% | 2% | 95% | 7% |  | 
20 | O=C(/C=C/c1ccc(C(F)(F)F)nc1N1CCCCC1)N1CCC2(CC1)CC(c1ccccc1)=NO2 [Compound 355, (E)-1-(3-phenyl-1-oxa-2,8-diazaspiro[4.5]dec-2-en-8-yl)-3-(2-(piperidin-1-yl)-6-(trifluoromethyl)pyridin-3-yl)prop-2-en-1-one] | 63% | 0% | 98% | 0% |  | 
21 | O=C(/C=C/c1ccc(C(F)(F)F)nc1N1CCCCC1)N1CCC2(CC1)CC(c1cccc(Cl)c1)=NO2 [Compound 356, (E)-1-(3-(3-chlorophenyl)-1-oxa-2,8-diazaspiro[4.5]dec-2-en-8-yl)-3-(2-(piperidin-1-yl)-6-(trifluoromethyl)pyridin-3-yl)prop-2-en-1-one] | 52% | 0% | 88% | 0% |  | 
22 | CC(C)(C)c1ccc(/C(=C/C(=O)N2CCC3(CC2)CC(c2ccccc2F)=NO3)c2ccc(Cl)c(Cl)c2)cc1 [Compound 359, (Z)-3-(4-tert-butylphenyl)-3-(3,4-dichlorophenyl)-1-(3-(2-fluorophenyl)-1-oxa-2,8-diazaspiro[4.5]dec-2-en-8-yl)prop-2-en-1-one] | 26% | 0% | 57% | 3% |  | 
23 | COc1cccc(C2=NOC3(CCN(C(=O)C#Cc4ccc(C(F)(F)F)cc4)CC3)C2)c1 [Compound 361, 1-(3-(3-methoxyphenyl)-1-oxa-2,8-diazaspiro[4.5]dec-2-en-8-yl)-3-(4-(trifluoromethyl)phenyl)prop-2-yn-1-one] | 12% | 0% | 58% | 0% |  | 
